In US20030104507A1, “Method for detection of ATP” (priority 2001, published 2003):

How the values were obtained:
[1] = biological target: T1, LucPpy (Photinus pyralis, UniProt P08659); assay: Stability of reagent composition with LucPpy and detergent (RT, pH 7.0); format: biochemical; conditions: LucPpy
T1 construct: purchased Promega E170A
Description: (§1) The detergents used for inhibition of endogenous ATPase activity in a sample also affect activity of luciferase. […] It is ultimately the extended stability of a reagent composition, comprising an ATPase inhibitor and a luciferase enzyme, which provides a composition useful for measuring ATP, in a sample or samples, over an extended period of time.
(§2) In this experiment, the stability of a reagent composition comprising wild type LucPpy was compared to the stability of a reagent composition comprising LucPpe2m146 at about 23° C. (room temperature). The various reagent compositions had varying detergent concentrations.
(§3) Two solutions were created as listed below. One contained the luciferase, luciferin, MgSO4, and buffer (reagent composition). The other solution contained media plus ATP (media solution).
(§4) 50 μg/ml enzyme (LucPpy is Promega catalog #E170A)
(§5) Detergent (at various concentrations, see table below)
(§6) For each reagent composition, all ingredients except the luciferase enzyme were assembled; the enzyme was then added immediately before the first luminescence reading was taken. Immediately after addition of enzyme to each reagent composition and for various timepoints thereafter, 100 μl aliquots of the reagent composition were added to wells of a 96-well microtitre luminometer plate in triplicate. To these were added 100 μl Media Solution containing the ATP. Luminescence was then immediately read on a Dynex MLX microtitreplate luminometer, 0.5 second reads per well. The average relative light unit values as well as the reaction half lives are listed below in Table I and the percent of original luminescence remaining at each timepoint is listed in Table J below. The timepoint at the top of the column indicates the time at which the first rlu measurement for the samples in that column was read. […] Times listed in Table I are the same for Table J. The values for sulfobetaine and for CTAB were generated on different days, they are presented with the control values generated in the same experiment.

[2] = tested on: LucPpe2m146; assay: Stability of reagent composition with LucPpe2m146 and detergent (RT, pH 7.0); format: biochemical, Photuris pennsylvanica
Description: as §1, §2, §3, §4, §5, §6

CCCCCCCCCCCCCCCC[N+](C)(C)C.[Br-] [CTAB, Cetyltrimethylammonium bromide]
Average Relative Light Units ([1]; 0.02%, 0.75 min (head r25)): 1869.80 rlu | Percent of Luminescence Remaining ([1]; 0.02%, 0.75 min (times of Table I r25)): 100.00% | Average Relative Light Units ([1]; 0.02%, 6 min (head r25)): 79.719 rlu | Percent of Luminescence Remaining ([1]; 0.02%, 6 min (times of Table I r25)): 0.09% | Percent of Luminescence Remaining ([1]; 0.02%, 16 min (times of Table I r25, r31)): 0.03% | Average Relative Light Units ([1]; 0.02%, (16 min) (head r25)): 0.099 rlu | Average Relative Light Units ([1]; 0.05%, 0.75 min (head r25)): 1134.53 rlu | Percent of Luminescence Remaining ([1]; 0.05%, 0.75 min (times of Table I r25)): 100.00% | Average Relative Light Units ([1]; 0.05%, 6 min (head r25)): 0.563 rlu | Percent of Luminescence Remaining ([1]; 0.05%, 6 min (times of Table I r25)): 0.05% | Average Relative Light Units ([1]; 0.05%, 20 min (head r25)): 0.015 rlu | Percent of Luminescence Remaining ([1]; 0.05%, 20 min (times of Table I r25)): 0.00% | Average Relative Light Units ([1]; 0.1%, 0.75 min (head r25)): 94.603 rlu | Percent of Luminescence Remaining ([1]; 0.1%, 0.75 min (times of Table I r25)): 100.00% | Average Relative Light Units ([1]; 0.1%, 6 min (head r25)): 0.020 rlu | Percent of Luminescence Remaining ([1]; 0.1%, 6 min (times of Table I r25)): 0.02% | Average Relative Light Units ([2]; LucPpe2m146, 0.02%, 1.0 min (head r61)): 11019.8 rlu | Percent of Luminescence Remaining ([2]; LucPpe2m146, 0.02%, 1.0 min (times of Table I r61)): 100.00% | Average Relative Light Units ([2]; LucPpe2m146, 0.02%, 37 min (head r61)): 2051.7 rlu | Percent of Luminescence Remaining ([2]; LucPpe2m146, 0.02%, 37 min (times of Table I r61)): 18.62% | Average Relative Light Units ([2]; LucPpe2m146, 0.02%, 67 min (head r61)): 1087.4 rlu | Percent of Luminescence Remaining ([2]; LucPpe2m146, 0.02%, 67 min (times of Table I r61)): 9.87% | Average Relative Light Units ([2]; LucPpe2m146, 0.02%, 116 min (head r61)): 6117.8 rlu | Percent of Luminescence Remaining ([2]; LucPpe2m146, 0.02%, 116 min (times of Table I r61)): 55.52% | Average Relative Light Units ([2]; LucPpe2m146, 0.02%, 177 min (head r61)): 16020.8 rlu | Percent of Luminescence Remaining ([2]; LucPpe2m146, 0.02%, 177 min (times of Table I r61)): 145.38% | Average Relative Light Units ([2]; LucPpe2m146, 0.02%, 243 min (head r61)): 16368.5 rlu | Percent of Luminescence Remaining ([2]; LucPpe2m146, 0.02%, 243 min (times of Table I r61)): 148.54% | Average Relative Light Units ([2]; LucPpe2m146, 0.05%, 1.0 min (head r61)): 11992.5 rlu | Percent of Luminescence Remaining ([2]; LucPpe2m146, 0.05%, 1.0 min (times of Table I r61)): 100.00% | Average Relative Light Units ([2]; LucPpe2m146, 0.05%, 37 min (head r61)): 301.5 rlu | Percent of Luminescence Remaining ([2]; LucPpe2m146, 0.05%, 37 min (times of Table I r61)): 2.51% | Average Relative Light Units ([2]; LucPpe2m146, 0.05%, 67 min (head r61)): 131.7 rlu | Percent of Luminescence Remaining ([2]; LucPpe2m146, 0.05%, 67 min (times of Table I r61)): 1.10% | Average Relative Light Units ([2]; LucPpe2m146, 0.05%, 116 min (head r61)): 4219.7 rlu | Percent of Luminescence Remaining ([2]; LucPpe2m146, 0.05%, 116 min (times of Table I r61)): 35.19% | Average Relative Light Units ([2]; LucPpe2m146, 0.05%, 177 min (head r61)): 16910.8 rlu | Percent of Luminescence Remaining ([2]; LucPpe2m146, 0.05%, 177 min (times of Table I r61)): 141.01% | Average Relative Light Units ([2]; LucPpe2m146, 0.05%, 243 min (head r61)): 17340.0 rlu | Percent of Luminescence Remaining ([2]; LucPpe2m146, 0.05%, 243 min (times of Table I r61)): 144.5% | Average Relative Light Units ([2]; LucPpe2m146, 0.1%, 1.0 min (head r61)): 1047.8 rlu | Percent of Luminescence Remaining ([2]; LucPpe2m146, 0.1%, 1.0 min (times of Table I r61)): 100.00% | Average Relative Light Units ([2]; LucPpe2m146, 0.1%, 37 min (head r61)): 5.3 rlu | Percent of Luminescence Remaining ([2]; LucPpe2m146, 0.1%, 37 min (times of Table I r61)): 0.51% | Average Relative Light Units ([2]; LucPpe2m146, 0.1%, 67 min (head r61)): 5.2 rlu | Percent of Luminescence Remaining ([2]; LucPpe2m146, 0.1%, 67 min (times of Table I r61)): 0.50% | Average Relative Light Units ([2]; LucPpe2m146, 0.1%, 116 min (head r61)): 6.2 rlu | Percent of Luminescence Remaining ([2]; LucPpe2m146, 0.1%, 116 min (times of Table I r61)): 0.59% | Average Relative Light Units ([2]; LucPpe2m146, 0.1%, 177 min (head r61)): 6.0 rlu | Percent of Luminescence Remaining ([2]; LucPpe2m146, 0.1%, 177 min (times of Table I r61)): 0.58% | Average Relative Light Units ([2]; LucPpe2m146, 0.1%, 243 min (head r61)): 5.7 rlu | Percent of Luminescence Remaining ([2]; LucPpe2m146, 0.1%, 243 min (times of Table I r61)): 0.55%
